# In US9393221B2, “Methods and compounds for reducing intracellular lipid storage” (THE GENERAL HOSPITAL CORPORATION, priority 2011, dated 2016):
# Counter-ions that a name gives are not always drawn.
# Test system: ATGL-KO iPSCs
# Assay: High throughput iPSC chemical screening, Oil Red O (ORO) lipid accumulation; on Z-score: test concentration or dose not given here
# Assay type: cell-based, mouse
# Details: not given
row,Compound,Z-score
1,CCN(CC)CCCC(C)Nc1ccnc2cc(Cl)ccc12 (centres unmarked) [Chloroquine diphosphate],0.8301

# Same assay, conditions: glycolytic switch compounds
row,Compound,Rank in normalized ORO score from screen
1,CN(C)CC/C=C1/c2ccccc2Sc2ccc(Cl)cc21 [Chlorprothixene hydrochloride],223
2,"O=C1C=CC(=O)c2c1ccc1c2ccc2ccccc21 [Chrysene-1,4-quinone]",133
3,C(=C\c1ccccc1)/CN1CCN(C(c2ccccc2)c2ccccc2)CC1 [Cinnarizine],44
4,CN1CCC[C@@H]1CCO[C@](C)(c1ccccc1)c1ccc(Cl)cc1 [Clemastine fumarate],197

# Same assay, conditions: normalized ORO level vs DMSO-treated cells; compound present during 7 days differentiation, 96-well; negative = decrease in lipid accumulation
row,Compound,Z-score
1,"NC(N)=NOCC[C@H](N)C(=O)O.O.O=S(=O)(O)O [Canavanine sulfate monohydrate (L,+)]",−0.5687
2,C[C@]12CCC(=O)C=C1C=C[C@@H]1[C@@H]2CC[C@@]2(C)[C@H]1CC[C@@]2(O)CCC(=O)O [Canrenoic acid potassium salt],−0.274
3,C[C@@]12C(=O)OC(=O)[C@]1(C)[C@H]1CC[C@@H]2O1 [Cantharidin],18.9862
4,COc1cc(CNC(=O)CCCC/C=C/C(C)C)ccc1O [Capsaicin],0.3383
5,C[C@H](CS)C(=O)N1CCC[C@H]1C(=O)O [Captopril],−0.2654
6,C[N+](C)(C)CCOC(N)=O [Carbachol],0.7384
7,NC(=O)N1c2ccccc2C=Cc2ccccc21 [Carbamazepine],0.2892
8,CC1(C)[C@@H](OC(=O)CCC(=O)O)CC[C@]2(C)[C@H]3C(=O)C=C4[C@@H]5C[C@@](C)(C(=O)O)CC[C@]5(C)CC[C@@]4(C)[C@]3(C)CC[C@@H]12 [Carbenoxolone disodium salt],−1.2656
9,CCN(CC)CCOCCOC(=O)C1(c2ccccc2)CCCC1 [Carbetapentane citrate],1.581
10,CCOC(=O)n1ccn(C)c1=S [Carbimazole],−0.836
11,NCCC(=O)NCCc1c[nH]cn1 [Carcinine],0.6838
12,CCCC(C)(COC(N)=O)COC(=O)NC(C)C (centres unmarked) [Carisoprodol],0.5591
13,CC(C)(C)NCC(O)COc1cccc2c1CCC(=O)N2 (centres unmarked) [Carteolol hydrochloride],−0.6876
14,N[C@@H](C(=O)N[C@@H]1C(=O)N2C(C(=O)O)=C(Cl)CS[C@H]12)c1ccccc1 [Cefaclor],−0.5619
15,CC1=C(C(=O)O)N2C(=O)[C@@H](NC(=O)[C@H](N)c3ccc(O)cc3)[C@H]2SC1 [Cefadroxil],−0.5419
16,NC(=O)c1cc[n+](CC2=C(C(=O)[O-])N3C(=O)[C@@H](NC(=O)Cc4cccs4)[C@H]3SC2)cc1 [Cefalonium],−0.8363
17,Cn1nnnc1SCC1=C(C(=O)O)N2C(=O)[C@@H](NC(=O)[C@H](O)c3ccccc3)[C@H]2SC1 [Cefamandole sodium salt],−0.5703
18,Cc1nnc(SCC2=C(C(=O)O)N3C(=O)[C@@H](NC(=O)Cn4cnnn4)[C@H]3SC2)s1 [Cefazolin sodium salt],−0.8698
19,CO/N=C(\C(=O)N[C@@H]1C(=O)N2C(C(=O)O)=C(C[N+]3(C)CCCC3)CS[C@H]12)c1csc(N)n1 [Cefepime hydrochloride],1.172
20,C=CC1=C(C(=O)O)N2C(=O)[C@@H](NC(=O)/C(=N\OCC(=O)O)c3csc(N)n3)[C@H]2SC1 [Cefixime],1.521
21,CO[C@@]1(NC(=O)CSCC#N)C(=O)N2C(C(=O)O)=C(CSc3nnnn3C)CS[C@@H]21 [Cefmetazole sodium salt],−0.8537
22,CCN1CCN(C(=O)N[C@@H](C(=O)N[C@@H]2C(=O)N3C(C(=O)O)=C(CSc4nnnn4C)CS[C@H]23)c2ccc(O)cc2)C(=O)C1=O [Cefoperazone dihydrate],0.4847
23,NCc1ccccc1CC(=O)N[C@@H]1C(=O)N2C(C(=O)O)=C(CSc3nnnn3CC(=O)O)CS[C@H]12 [Ceforanide],1.929

row,Compound,Z-score
1,CO/N=C(\C(=O)N[C@@H]1C(=O)N2C(C(=O)O)=C(COC(C)=O)CS[C@H]12)c1csc(N)n1 [Cefotaxime sodium salt],−0.8289
2,CO[C@@]1(NC(=O)C2SC(=C(C(N)=O)C(=O)O)S2)C(=O)N2C(C(=O)O)=C(CSc3nnnn3C)CS[C@@H]21 (some centres unmarked) [Cefotetan],2.584
3,CN(C)CCn1nnnc1SCC1=C(C(=O)O)N2C(=O)[C@@H](NC(=O)Cc3csc(N)n3)[C@H]2SC1 [Cefotiam hydrochloride],−0.8453
4,CO[C@@]1(NC(=O)Cc2cccs2)C(=O)N2C(C(=O)O)=C(COC(N)=O)CS[C@@H]21 [Cefoxitin sodium salt],−1.629
5,NC(=O)c1cc[n+](CC2=C(C(=O)O)N3C(=O)[C@@H](NC(=O)[C@@H](c4ccccc4)S(=O)(=O)[O-])[C@H]3SC2)cc1 [Cefsulodin sodium salt],−1.1155
6,CC(C)(O/N=C(\C(=O)N[C@@H]1C(=O)N2C(C(=O)[O-])=C(C[n+]3ccccc3)CS[C@H]12)c1csc(N)n1)C(=O)O [Ceftazidime pentahydrate],0.00611
7,CO/N=C(\C(=O)N[C@@H]1C(=O)N2C(C(=O)O)=C(COC(N)=O)CS[C@H]12)c1ccco1 [Cefuroxime sodium salt],0.8177
8,CC[C@H]1CN2CCc3cc(OC)c(OC)cc3[C@@H]2C[C@@H]1C[C@H]1NCCc2cc(O)c(OC)cc21.Cl.Cl.O.O.O.O.O.O.O [Cephaeline dihydrochloride heptahydrate],26.5614
9,CC1=C(C(=O)O)N2C(=O)[C@@H](NC(=O)[C@H](N)c3ccccc3)[C@H]2SC1 [Cephalexin monohydrate],−1.1486
10,"CC(=O)OCC1=C(C(=O)O)N2C(=O)[C@@H](N)[C@H]2SC1 [Cephalosporanic acid, 7-amino]",0.3224
11,CC(=O)OCC1=C(C(=O)O)N2C(=O)[C@@H](NC(=O)Cc3cccs3)[C@H]2SC1 [Cephalothin sodium salt],0.8566
12,O=C(O)COCCN1CCN(C(c2ccccc2)c2ccc(Cl)cc2)CC1 (centres unmarked) [Cetirizine dihydrochloride],−0.3764
13,CN1Cc2c(ccc3c2OCO3)C2C(O)Cc3cc4c(cc3C21)OCO4 (stereo not drawn) [Chelidonine (+)],16.9912
14,C[C@H](CCC(=O)O)[C@H]1CC[C@H]2[C@@H]3[C@H](O)C[C@@H]4C[C@H](O)CC[C@]4(C)[C@H]3CC[C@]12C [Chenodiol],−1.6767
15,COc1cc(-c2ccc(N=Nc3ccc4c(S(=O)(=O)[O-])cc(S(=O)(=O)[O-])c(N)c4c3O)c(OC)c2)ccc1N=Nc1ccc2c(S(=O)(=O)[O-])cc(S(=O)(=O)[O-])c(N)c2c1O.[Na+].[Na+].[Na+].[Na+] [Chicago sky blue 6B],0.6958
16,O=C(O)CCCc1ccc(N(CCCl)CCCl)cc1 [Chlorambucil],−0.8818
17,O=C(N[C@H](CO)[C@H](O)c1ccc([N+](=O)[O-])cc1)C(Cl)Cl [Chloramphenicol],1.318
18,[H]/N=C(\N/C(=N/[H])NCCCCCCNC(=N)NC(=N)Nc1ccc(Cl)cc1)Nc1ccc(Cl)cc1 [Chlorhexidine],24.4911
19,CN1C(=O)CCS(=O)(=O)C1c1ccc(Cl)cc1 (centres unmarked) [Chlormezanone],−0.6525
20,O=C(/C=C/c1ccc(O)c(O)c1)O[C@@H]1C[C@](O)(C(=O)O)C[C@@H](O)[C@H]1O [Chlorogenic acid],0.1486
21,CN(C)CCN(Cc1ccc(Cl)cc1)c1ccccn1 [Chloropyramine hydrochloride],0.124
22,NS(=O)(=O)c1cc2c(cc1Cl)N=CNS2(=O)=O [Chlorothiazide],−0.1987
23,COc1ccc(C(Cl)=C(c2ccc(OC)cc2)c2ccc(OC)cc2)cc1 [Chlorotrianisene],−0.6534

row,Compound,Z-score
1,CN(C)CCC(c1ccc(Cl)cc1)c1ccccn1 (centres unmarked) [Chlorpheniramine maleate],−0.5399
2,NC(=O)OCC(O)COc1ccc(Cl)cc1 (centres unmarked) [Chlorphensin carbamate],0.4583
3,CN(C)CCCN1c2ccccc2Sc2ccc(Cl)cc21 [Chlorpromazine hydrochloride],−0.5417
4,CCCNC(=O)NS(=O)(=O)c1ccc(Cl)cc1 [Chlorpropamide],0.199
5,CN(C)CC/C=C1/c2ccccc2Sc2ccc(Cl)cc21 [Chlorprothixene hydrochloride],−0.9824
6,CN(C)[C@@H]1C(O)=C(C(N)=O)C(=O)[C@@]2(O)C(O)=C3C(=O)c4c(O)ccc(Cl)c4[C@@](C)(O)[C@H]3C[C@@H]12 [Chlortetracycline hydrochloride],−0.5479
7,NS(=O)(=O)c1cc(C2(O)NC(=O)c3ccccc32)ccc1Cl (centres unmarked) [Chlorthalidone],−0.3195
8,C=C1CC[C@H](O)C/C1=C/C=C1\CCC[C@]2(C)[C@@H]([C@H](C)CCCC(C)C)CC[C@@H]12 [Cholecalciferol],0.4701
9,"O=C1C=CC(=O)c2c1ccc1c2ccc2ccccc21 [Chrysene-1,4-quinone]",−1.1808
10,O=c1cc(-c2ccccc2)oc2cc(O)cc(O)c12 [Chrysin],−0.7142
11,Cc1cc(C2CCCCC2)n(O)c(=O)c1.NCCO [Ciclopirox ethanolamine],40.334
12,CN/C(=N/CCSCc1nc[nH]c1C)NC#N [Cimetidine],−0.2141
13,C=C[C@H]1C[N@@]2CC[C@H]1C[C@@H]2[C@@H](O)c1ccnc2ccccc12 [Cinchonine],−1.1697
14,C(=C\c1ccccc1)/CN1CCN(C(c2ccccc2)c2ccccc2)CC1 [Cinnarizine],−1.6064
15,CCn1nc(C(=O)O)c(=O)c2cc3c(cc21)OCO3 [Cinoxacin],0.8009
16,CC(C)(Oc1ccc(C2CC2(Cl)Cl)cc1)C(=O)O (centres unmarked) [Ciprofibrate],−0.5993
17,O=C(O)c1cn(C2CC2)c2cc(N3CCNCC3)c(F)cc2c1=O [Ciprofloxacin hydrochloride],−1.3212
18,COc1cc(N)c(Cl)cc1C(=O)NC1CCN(CCCOc2ccc(F)cc2)CC1OC (centres unmarked) [Cisapride],0.02062
19,CN(C)CCCC1(c2ccc(F)cc2)OCc2cc(C#N)ccc21 (centres unmarked) [Citalopram Hydrobromide],0.03052
20,COc1cc(N)c(Cl)cc1C(=O)NC1CCN(Cc2ccccc2)CC1 [Clebopride maleate],−0.108
21,CN1CCC[C@@H]1CCO[C@](C)(c1ccccc1)c1ccc(Cl)cc1 [Clemastine fumarate],−1.0269
22,Clc1ccc(Cn2c(CN3CCCC3)nc3ccccc32)cc1 [Clemizole hydrochloride],−0.5701
23,CC(C)(C)NCC(O)c1cc(Cl)c(N)c(Cl)c1 (centres unmarked) [Clenbuterol hydrochloride],0.2391
